Measured values: patent US8217029B2, “Oxazolidinone antibiotics” (Actelion Pharmaceuticals Ltd, priority 2007, dated 2012)
Values after ≈ are worked out from the molar mass of the structure shown.

System: S aureus A798
Experiment: Minimal inhibitory concentration (MIC), microdilution method in cation-adjusted Mueller-Hinton Broth following NCCLS guidelines
Assay type: cell-based
Settings: pH of test medium 7.2-7.3
Method: These assays have been performed following the description given in “Methods for dilution Antimicrobial Susceptibility Tests for Bacteria that Grow Aerobically, 4th ed.; Approved standard: NCCLS Document M7-A4; National Committee for Clinical Laboratory Standards Villanova, Pa., USA, 1997”. Minimal inhibitory concentrations (MICs; mg/l) were determined in cation-adjusted Mueller-Hinton Broth by a microdilution method following NCCLS guidelines (National Committee for Clinical Laboratory Standards. Methods for Dilution Antimicrobial Susceptibility). The pH of the test medium was 7.2-7.3. All Example compounds were tested against several Gram positive and Gram negative bacteria.

Row | Structure (SMILES) | MIC [µg/mL] | MIC S aureus A798 [µg/mL]
1 | COc1ccc2nccc(N3C[C@@H](O)[C@H](NC[C@@H]4CN(c5ccc6c(c5)OCCO6)C(=O)O4)C3)c2n1 (relative stereo) [Example 77, (R)-3-(2,3-Dihydro-benzo[1,4]dioxin-6-yl)-5-{[(3R*,4R*)-4-hydroxy-1-(6-methoxy-[1,5]naphthyridin-4-yl)-pyrrolidin-3-ylamino]-methyl}-oxazolidin-2-one] | 0.25 (≈ 0.507 µM) | –
2 | COc1ccc(N2C[C@@H](CNC3CN(c4ccnc5ccc(OC)nc45)C3)OC2=O)cc1 [Example 174, (R)-5-{[1-(6-Methoxy-[1,5]naphthyridin-4-yl)-azetidin-3-ylamino]-methyl}-3-(4-methoxy-phenyl)-oxazolidin-2-one] | ≤ 0.031 | –
3 | COc1ccc2nccc(N3CC[C@H](NC(=O)[C@@H]4CN(c5ccc6c(c5)OCCO6)C(=O)O4)C3)c2n1 [Example 60, (S)-3-(2,3-Dihydro-benzo[1,4]dioxin-6-yl)-2-oxo-oxazolidine-5-carboxylic acid [(S)-1-(6-methoxy-[1,5]naphthyridin-4-yl)-pyrrolidin-3-yl]-amide] | ≤ 0.031 | –
4 | COc1ccc2nccc(N3CCC(C(=O)NC[C@@H]4CN(c5ccc6c(c5)OCCO6)C(=O)O4)C3)c2n1 (mixture of isomers) [Example 85, (RS)-1-(6-Methoxy-[1,5]naphthyridin-4-yl)-pyrrolidine-3-carboxylic acid [(R)-3-(2,3-dihydro-benzo[1,4]dioxin-6-yl)-2-oxo-oxazolidin-5-ylmethyl]-amide] | 0.25 | –
5 | COc1ccc2ncc(F)c(N3CCC(NC[C@@H]4CN(c5ccc6c(c5)NC(=O)CO6)C(=O)O4)CC3)c2n1 [Example 123, 6-((R)-5-{[1-(3-Fluoro-6-methoxy-[1,5]naphthyridin-4-yl)-piperidin-4-ylamino]-methyl}-2-oxo-oxazolidin-3-yl)-4H-benzo[1,4]oxazin-3-one] | ≤ 0.031 | –
6 | COc1ccc(N2C[C@@H](CN[C@H]3CCN(c4c(F)cnc5ccc(OC)nc45)C3)OC2=O)cc1 [Example 169, (R)-5-{[(S)-1-(3-Fluoro-6-methoxy-[1,5]naphthyridin-4-yl)-pyrrolidin-3-ylamino]-methyl}-3-(4-methoxy-phenyl)-oxazolidin-2-one] | 0.5 (≈ 1.07 µM) | –
7 | COc1ccc2nccc(N3CC(N(C)C[C@@H]4CN(c5cc6c(nn5)OCCO6)C(=O)O4)C3)c2n1 [Example 153, (R)-3-(6,7-Dihydro-[1,4]dioxino[2,3-c]pyridazin-3-yl)-5-({[1-(6-methoxy-[1,5]naphthyridin-4-yl)-azetidin-3-yl]-methyl-amino}-methyl)-oxazolidin-2-one] | 4 (≈ 8.34 µM) | –
8 | COc1ccc2cccc(N3CC(CNC[C@@H]4CN(c5ccc6c(c5)NC(=O)CS6)C(=O)O4)C3)c2n1 [Example 162, 6-[(R)-5-({[1-(2-Methoxy-quinolin-8-yl)-azetidin-3-ylmethyl]-amino}-methyl)-2-oxo-oxazolidin-3-yl]-4H-benzo[1,4]thiazin-3-one] | ≤ 0.031 | –
9 | COc1ccc2nccc(N3CC[C@H](CNC[C@@H]4CN(c5ccc6c(c5)NC(=O)CO6)C(=O)O4)C3)c2n1 [Example 167, 6-[(R)-5-({[(R)-1-(6-Methoxy-[1,5]naphthyridin-4-yl)-pyrrolidin-3-ylmethyl]amino}-methyl)-2-oxo-oxazolidin-3-yl]-4H-benzo[1,4]oxazin-3-one] | ≤ 0.031 | –
10 | COc1ccc2nccc(N3CCC(NC[C@H]4CN(c5ccc6c(c5)NC(=O)CS6)C(=O)O4)CC3)c2n1 [Example 165, 6-((S)-5-{[1-(6-Methoxy-[1,5]naphthyridin-4-yl)-piperidin-4-ylamino]-methyl}-2-oxo-oxazolidin-3-yl)-4H-benzo[1,4]thiazin-3-one] | ≤ 0.031 | –
11 | CCOc1ccc(N2C[C@@H](CNC3CN(c4ccnc5ccc(OC)nc45)C3)OC2=O)cc1 [Example 175, (R)-3-(4-Ethoxy-phenyl)-5-{[1-(6-methoxy-[1,5]naphthyridin-4-yl)-azetidin-3-ylamino]-methyl}-oxazolidin-2-one] | ≤ 0.031 | –
12 | COc1ccc2ncc(F)c(N3CC(NC[C@@H]4CN(c5cc6c(cc5F)SCC(=O)N6)C(=O)O4)C3)c2n1 [Example 155, 7-Fluoro-6-((R)-5-{[1-(3-fluoro-6-methoxy-[1,5]naphthyridin-4-yl)-azetidin-3-ylamino]-methyl}-2-oxo-oxazolidin-3-yl)-4H-benzo[1,4]thiazin-3-one] | ≤ 0.031 | –

Now from value to compound:

Row | MIC [µg/mL] | MIC S aureus A798 [µg/mL] | Structure (SMILES)
13 | ≤ 0.031 | – | COc1ccc2nccc(N3CCN(C[C@@H]4CN(c5ccc(Br)c(F)c5)C(=O)O4)CC3)c2n1 [Example 13, (R)-3-(4-Bromo-3-fluoro-phenyl)-5-[4-(6-methoxy-[1,5]naphthyridin-4-yl)-piperazin-1-ylmethyl]-oxazolidin-2-one]
14 | ≤ 0.031 | – | COc1ccc2nccc(N3CCC(CNC(=O)[C@@H]4CN(c5ccc(C)c(F)c5)C(=O)O4)C3)c2n1 (mixture of isomers) [Example 82, (S)-3-(3-Fluoro-4-methyl-phenyl)-2-oxo-oxazolidine-5-carboxylic acid [(RS)-1-(6-methoxy-[1,5]naphthyridin-4-yl)-pyrrolidin-3-ylmethyl]-amide]
15 | 4 | – | COc1ccc2nccc(N3CC[C@@H]4CN(C[C@@H]5CN(c6ccc7c(c6)OCCO7)C(=O)O5)C[C@@H]43)c2n1 (mixture of isomers) [Example 90, (R)-3-(2,3-Dihydro-benzo[1,4]dioxin-6-yl)-5-{[(3aR*,6aR*)-1-(6-methoxy-[1,5]naphthyridin-4-yl)-hexahydro-pyrrolo[3,4-b]pyrrol-5-yl]-methyl}-oxazolidin-2-one]
16 | – | 0.063 (≈ 0.135 µM) | COc1ccc2nccc(N3CCN(C[C@H]4CN(c5ccc(C)c(F)c5)C(=O)O4)C(=O)C3)c2n1 (single isomer, unassigned) [Example 100, [(S)-3-(3-Fluoro-4-methyl-phenyl)-2-oxo-oxazolidin-5-ylmethyl]-4-(6-methoxy-[1,5]naphthyridin-4-yl)-piperazin-2-one or [(R)-3-(3-Fluoro-4-methyl-phenyl)-2-oxo-oxazolidin-5-ylmethyl]-4-(6-methoxy-[1,5]naphthyridin-4-yl)-piperazin-2-one]
17 | ≤ 0.031 | – | COc1ccc2nccc(N3CCN(C[C@@H]4CN(c5ccc6c(c5)NC(=O)CO6)C(=O)O4)CC3)c2n1 [Example 96, 6-{(R)-5-[4-(6-Methoxy-[1,5]naphthyridin-4-yl)-piperazin-1-ylmethyl]-2-oxo-oxazolidin-3-yl}-4H-benzo[1,4]oxazin-3-one]
18 | ≤ 0.031 | – | COc1ccc2ncc(F)c(N3CCCN(C[C@@H]4CN(c5ccc6c(c5)NC(=O)CO6)C(=O)O4)CC3)c2n1 [Example 103, 6-{(R)-5-[4-(3-Fluoro-6-methoxy-[1,5]naphthyridin-4-yl)-[1,4]diazepan-1-ylmethyl]-2-oxo-oxazolidin-3-yl}-4H-benzo[1,4]oxazin-3-one]
19 | ≤ 0.031 | – | COc1ccc2nccc(N3CCN(C[C@@H]4CN(c5ccc6ncsc6c5)C(=O)O4)CC3)c2n1 [Example 19, (R)-3-Benzothiazol-6-yl-5-[4-(6-methoxy-[1,5]naphthyridin-4-yl)-piperazin-1-ylmethyl]-oxazolidin-2-one]
20 | 0.063 (≈ 0.14 µM) | – | COc1ccc2nccc(N3CC[C@H](NC[C@@H]4CN(c5ccc(C)c(F)c5)C(=O)O4)C3)c2n1 [Example 67, (R)-3-(3-Fluoro-4-methyl-phenyl)-5-{[(S)-1-(6-methoxy-[1,5]naphthyridin-4-yl)-pyrrolidin-3-ylamino]-methyl}-oxazolidin-2-one]
